Data reported in article PMC10070963 (Frontiers in Microbiology, 2023).

B1: LIV-I branched chain amino acid transport system (Escherichia coli K-12) (protein)
chain: EDIKVAVVGAMSGPVAQYGDQEFTGAEQAVADINAKGGIKGNKLQIVKYDDACDPKQAVAVANKVVNDGIKYVIGHLCSSSTQPASDIYEDEGILMITPAATAPELTARGYQLILRTTGLDSDQGPTAAKYILEKVKPQRIAIVHDKQQYGEGLARAVQDGLKKGNANVVFFDGITAGEKDFSTLVARLKKENIDFVYYGGYHPEMGQILRQARAAGLKTQFMGPEGVANVSLSNIAGESAEGLLVTKPKNYDQVPANKPIVDAIKAKKQDPSGAFVWTTYAALQSLQAGLNQSDDPAEIAKYLKANSVDTVMGPLTWDEKGDLKGFEFGVFDWHANGTATDAK
notes: whole-cell uptake, ABC transporter

Legend:
SdaC = molecular target: T1, SdaC (Escherichia coli, UniProt P0AAD6); assay: radiolabelled uptake by whole cells, sdaC+ versus sdaC deletion; type: cell-based; details: M9 medium, 0.2% glucose, 37 °C; 100 μM L-serine; strain B2394 versus B2429; labelled compound (14C)
T1 construct: full-length native chromosomal sdaC, no tag; whole-cell uptake in strain lacking the other carriers, compared with its sdaC deletion B2429
T1 sequence (P0AAD6 whole entry): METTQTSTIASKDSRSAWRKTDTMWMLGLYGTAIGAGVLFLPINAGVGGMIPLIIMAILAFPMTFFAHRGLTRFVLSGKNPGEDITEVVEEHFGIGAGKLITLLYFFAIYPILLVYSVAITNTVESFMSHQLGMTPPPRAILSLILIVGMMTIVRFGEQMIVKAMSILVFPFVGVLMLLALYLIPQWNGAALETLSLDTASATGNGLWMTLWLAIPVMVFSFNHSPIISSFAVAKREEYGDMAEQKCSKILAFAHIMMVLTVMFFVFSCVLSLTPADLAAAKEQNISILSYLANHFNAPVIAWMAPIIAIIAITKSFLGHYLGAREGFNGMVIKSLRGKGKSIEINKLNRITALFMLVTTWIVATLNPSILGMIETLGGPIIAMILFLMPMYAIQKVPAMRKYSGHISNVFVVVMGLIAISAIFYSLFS

[1] = substrate: C[C@@H](O)[C@H](N)C(=O)O; assay: radiolabelled uptake by whole cells, initial velocity, Lineweaver-Burk; type: cell-based, Escherichia coli; details: M9 medium, 0.2% glucose, 37 °C, strain B2394[pMW-liv] overexpressing LIV-I, labelled compound (14C)

Row | Molecule | radiolabelled uptake by whole cells, sdaC+ versus sdaC deletion (SdaC) | Km [1]
1 | N[C@@H](CO)C(=O)O [L-serine] | serine transport activity of the B2394 strain possessing SdaC as the sole transporter | 
2 | B1 |  | 13.0 ± 0.9 µM
